Values joined by “and” are separate entries in the source; they are usually repeats but may differ in a detail not shown here. Identical values can stand only once.
Columns and labels:
Assay in all cases: FP assay with Cy5-labelled p62 LIR tracer (protein titration and tracer displacement)
[1] = target: GABARAP (Homo sapiens, UniProt O95166); assay type: binding; conditions: two replicate columns per compound
[2] = target: GABARAPL1 (Homo sapiens, UniProt Q9H0R8); assay type: binding; conditions: for normalized FP signal, p62 LIR tracer displacement: GABARAPL1; for compound titration GABARAPL1 (displacement curve, FP signal): two replicate columns per compound; for FP tracer displacement curve signal (compound titration): duplicate values
Chain of GABARAPL1 (Q9H0R8 whole entry): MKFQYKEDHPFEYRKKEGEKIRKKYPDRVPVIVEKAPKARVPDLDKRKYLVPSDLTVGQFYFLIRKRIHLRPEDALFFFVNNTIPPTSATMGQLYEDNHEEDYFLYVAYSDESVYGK

[3] = target: GABARAPL2 (Homo sapiens, UniProt P60520); conditions: GABARAPL2
Chain of GABARAPL2 (P60520 whole entry): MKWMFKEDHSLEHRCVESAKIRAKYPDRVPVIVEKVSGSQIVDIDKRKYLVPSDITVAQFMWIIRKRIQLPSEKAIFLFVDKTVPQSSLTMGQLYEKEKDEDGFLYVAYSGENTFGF

[4] = target: LC3C (Homo sapiens, UniProt Q9BXW4); assay type: binding; conditions: for normalized FP signal, p62 LIR tracer displacement: LC3C; for compound titration LC3C (displacement curve, FP signal): two replicate columns per compound
Chain of LC3C (Q9BXW4 1-126): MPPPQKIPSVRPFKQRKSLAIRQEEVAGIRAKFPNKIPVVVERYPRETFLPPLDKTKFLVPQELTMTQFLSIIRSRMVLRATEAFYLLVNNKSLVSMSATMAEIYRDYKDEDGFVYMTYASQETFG

[5] = log10 concentration [M] -7.79588
[6] = log10 concentration [M] -8.08092
[7] = log10 concentration [M] -3.82391, listed as 8F20
[8] = log10 concentration [M] -4.1549, listed as 8F20
[9] = log10 concentration [M] -4.60206
[10] = log10 concentration [M] -5, listed as 8F20
[11] = log10 concentration [M] -5.30103
[12] = log10 concentration [M] -5.69897, listed as 8F20
[13] = log10 concentration [M] -6.22185, listed as 8F20
[14] = log10 concentration [M] -6.69897, listed as 8F20
[15] = log10 concentration [M] -7.30103, listed as 8F20
[16] = log10 concentration [M] -7.79588, listed as 8F20
[17] = log10 concentration [M] -8.08092, listed as 8F20
[18] = log10 concentration [M] -3.82391
[19] = log10 concentration [M] -4.1549
[20] = log10 concentration [M] -4.60206, listed as 8F20
[21] = log10 concentration [M] -5.30103, listed as 8F20

Chain of GABARAP (O95166 1-116): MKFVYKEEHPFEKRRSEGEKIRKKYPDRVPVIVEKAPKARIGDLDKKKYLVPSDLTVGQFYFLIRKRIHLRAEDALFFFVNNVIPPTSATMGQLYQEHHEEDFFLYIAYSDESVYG

Cc1ccc(C(=O)N(CCCN)[C@@H](c2nc3cc(Cl)ccc3c(=O)n2Cc2ccccc2)C(C)C)cc1 [compound 3, (R)-N-(3-aminopropyl)-N-(1-(3-benzyl-7-chloro-4-oxo-3,4-dihydroquinazolin-2-yl)−2-methylpropyl)−4-methylbenzamide]
compound titration GABARAP (displacement curve, FP signal) [1, 5]: 95.5172
compound titration GABARAP (displacement curve, FP signal) [1, 6]: 97.069 and 98.1034
normalized FP signal, p62 LIR tracer displacement [2, 7]: 96.5714 and 97.4286
normalized FP signal, p62 LIR tracer displacement [2, 8]: 97.2857 and 99
normalized FP signal, p62 LIR tracer displacement [2, 9]: 101
normalized FP signal, p62 LIR tracer displacement [2, 10]: 101.143 and 102
normalized FP signal, p62 LIR tracer displacement [2, 11]: 100.143
normalized FP signal, p62 LIR tracer displacement [2, 12]: 94.7143 and 94.5714
normalized FP signal, p62 LIR tracer displacement [2, 13]: 98.2857 and 100.429
normalized FP signal, p62 LIR tracer displacement [2, 14]: 99.7143 and 102.286
normalized FP signal, p62 LIR tracer displacement [2, 15]: 103.571 and 102.286
normalized FP signal, p62 LIR tracer displacement [2, 16]: 96.8571 and 101.571
normalized FP signal, p62 LIR tracer displacement [2, 17]: 99.1429 and 98.1429
compound titration GABARAPL1 (displacement curve, FP signal) [2, 18]: 96.5714 and 97.4286
compound titration GABARAPL1 (displacement curve, FP signal) [2, 19]: 97.2857 and 99
compound titration GABARAPL1 (displacement curve, FP signal) [2, 9]: 101
compound titration GABARAPL1 (displacement curve, FP signal) ([2]; log10 concentration [M] -5): 101.143 and 102
FP tracer displacement curve signal (compound titration) [2, 12]: 94.7143 and 94.5714
FP tracer displacement curve signal (compound titration) [2, 13]: 98.2857 and 100.429
FP tracer displacement curve signal (compound titration) [2, 14]: 99.7143 and 102.286
FP tracer displacement curve signal (compound titration) [2, 15]: 103.571 and 102.286
FP tracer displacement curve signal (compound titration) [2, 16]: 96.8571 and 101.571
FP tracer displacement curve signal (compound titration) [2, 17]: 99.1429 and 98.1429
normalized FP signal, p62 LIR tracer displacement [3, 7]: 94 and 100
normalized FP signal, p62 LIR tracer displacement [3, 8]: 98.4 and 97.2
normalized FP signal, p62 LIR tracer displacement [3, 20]: 98.4 and 102.4
normalized FP signal, p62 LIR tracer displacement ([3]; log10 concentration [M] -5): 103.2
normalized FP signal, p62 LIR tracer displacement [3, 21]: 100.4 and 101.6
normalized FP signal, p62 LIR tracer displacement [3, 12]: 96.8 and 92
normalized FP signal, p62 LIR tracer displacement [3, 13]: 103.6 and 100.4
normalized FP signal, p62 LIR tracer displacement [3, 14]: 101.2 and 96
normalized FP signal, p62 LIR tracer displacement [3, 15]: 107.2 and 97.6
normalized FP signal, p62 LIR tracer displacement [3, 16]: 97.2 and 95.6
normalized FP signal, p62 LIR tracer displacement [3, 17]: 101.2 and 103.6
normalized FP signal, p62 LIR tracer displacement [4, 7]: 89.8 and 92.8
normalized FP signal, p62 LIR tracer displacement [4, 8]: 92.6 and 95.4
normalized FP signal, p62 LIR tracer displacement [4, 20]: 97.8 and 100.8
normalized FP signal, p62 LIR tracer displacement [4, 10]: 94.6 and 96.4
normalized FP signal, p62 LIR tracer displacement [4, 21]: 98.8 and 92.6
normalized FP signal, p62 LIR tracer displacement [4, 12]: 85.8 and 92.2
normalized FP signal, p62 LIR tracer displacement [4, 13]: 93.8 and 95
normalized FP signal, p62 LIR tracer displacement [4, 14]: 99.2 and 96.4
normalized FP signal, p62 LIR tracer displacement [4, 15]: 101 and 100.8
normalized FP signal, p62 LIR tracer displacement [4, 5]: 94.6
normalized FP signal, p62 LIR tracer displacement [4, 16]: 93.4
normalized FP signal, p62 LIR tracer displacement [4, 17]: 95.2 and 100.4
compound titration LC3C (displacement curve, FP signal) [4, 18]: 89.8 and 92.8
compound titration LC3C (displacement curve, FP signal) [4, 19]: 92.6 and 95.4
compound titration LC3C (displacement curve, FP signal) [4, 9]: 97.8 and 100.8
compound titration LC3C (displacement curve, FP signal) ([4]; log10 concentration [M] -5): 94.6 and 96.4
compound titration LC3C (displacement curve, FP signal) [4, 11]: 98.8 and 92.6
compound titration LC3C (displacement curve, FP signal) ([4]; log10 concentration [M] -5.69897): 85.8 and 92.2
compound titration LC3C (displacement curve, FP signal) ([4]; log10 concentration [M] -6.22185): 93.8 and 95
compound titration LC3C (displacement curve, FP signal) ([4]; log10 concentration [M] -6.69897): 99.2 and 96.4
compound titration LC3C (displacement curve, FP signal) ([4]; log10 concentration [M] -7.30103): 101 and 100.8
compound titration LC3C (displacement curve, FP signal) [4, 5]: 93.4 and 94.6
compound titration LC3C (displacement curve, FP signal) [4, 6]: 95.2 and 100.4

Source: publication PMC11589570, “Critical assessment of LC3/GABARAP ligands used for degrader development and ligandability of LC3/GABARAP binding pockets” (Nature Communications, 2024)
